Test results: US7528148B2, “Pyrazolo[3,4-B]pyridine compounds, and their use as phosphodiesterase inhibitors” (Glaxo Group Limited, priority 2002, dated 2009)

How the values were obtained:
[1] = target: T1, PDE4B (human recombinant) (Homo sapiens, UniProt Q07343); assay: PDE4B inhibition, radioactive SPA or IMAP fluorescence polarisation (FP) assay; assay type: biochemical; conditions: one reading or average of ca. 2-6 readings, accurate only to about ±0.5 log unit, read-out: PDE4B pIC50 (±about 0.5) (converted)
T1 construct: made in house; host or cells: Saccharomyces cerevisiae strain GL62 (PDE-deficient)
T1 sequence (Q07343 1-564 isoform Q07343-2): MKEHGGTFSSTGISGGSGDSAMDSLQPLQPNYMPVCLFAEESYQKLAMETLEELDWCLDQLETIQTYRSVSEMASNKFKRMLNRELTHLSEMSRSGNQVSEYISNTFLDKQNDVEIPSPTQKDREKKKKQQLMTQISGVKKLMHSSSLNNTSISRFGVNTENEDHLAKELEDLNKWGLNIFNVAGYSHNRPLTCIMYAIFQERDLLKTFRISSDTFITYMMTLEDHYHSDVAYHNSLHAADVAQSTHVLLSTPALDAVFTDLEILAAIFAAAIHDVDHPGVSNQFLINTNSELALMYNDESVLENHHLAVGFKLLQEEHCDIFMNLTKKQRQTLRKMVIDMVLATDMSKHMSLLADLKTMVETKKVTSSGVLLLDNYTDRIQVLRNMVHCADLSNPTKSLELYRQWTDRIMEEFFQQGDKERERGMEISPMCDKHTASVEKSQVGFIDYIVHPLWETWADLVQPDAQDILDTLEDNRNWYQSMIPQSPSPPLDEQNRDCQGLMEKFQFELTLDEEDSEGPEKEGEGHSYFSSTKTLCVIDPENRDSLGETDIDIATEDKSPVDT
From the text: Human recombinant PDE4B, in particular the 2B splice variant thereof (HSPDE4B2B), is disclosed in WO 94/20079 and also M. M. McLaughlin et al., “A low Km, rolipram-sensitive, cAMP-specific phosphodiesterase from human brain: cloning and expression of cDNA, biochemical characterisation of recombinant protein, and tissue distribution of mRNA”, J. Biol. Chem., 1993, 268, 6470-6476. Human recombinant PDE4B was expressed in the PDE-deficient yeast Saccharomyces cerevisiae strain GL62. 100,000×g supernatant fractions of yeast cell lysates were used for PDE4B assays and inhibitor studies.
The ability of compounds to inhibit catalytic activity at PDE4B or 4D (human recombinant), PDE3 (from bovine aorta) or PDE5 (human recombinant) or PDE6 (from bovine retina) was determined by Scintillation Proximity Assay (SPA) in 96-well format. Test compounds (preferably as a solution in DMSO, e.g. about 2 microlitre (ul) volume of DMSO solution) were preincubated at ambient temperature (room temperature, e.g. 19-23° C.) in Wallac Isoplates (code 1450-514) with PDE enzyme in 50 mM Tris-HCl buffer pH 7.5, 8.3 mM MgCl2, 1.7 mM EGTA, 0.05% (w/v) bovine serum albumin for 10-30 minutes (usually 30 minutes). The enzyme concentration was adjusted so that no more than 20% hydrolysis of the substrate defined below occurred in control wells without compound, during the incubation. For PDE3, PDE4B and PDE4D assays, [5′,8-^3H]Adenosine 3′,5′-cyclic phosphate (Amersham Pharmacia Biotech, code TRK.559; or Amersham Biosciences UK Ltd, Pollards Wood, Chalfont St Giles, Buckinghamshire HP8 4SP, UK) was added to give 0.05 uCi per well and ˜10 nM final concentration. For the PDE5 and PDE6 assay [8-^3H]Guanosine 3′,5′-cyclic phosphate (Amersham Pharmacia Biotech, code TRK.392) was added to give 0.05 uCi per well and ˜36 nM final concentration. Plates, preferably containing approx. 100 ul volume of assay mixture, were mixed on an orbital shaker for 5 minutes and incubated at ambient temperature for 1 hour. Phosphodiesterase SPA beads (Amersham Pharmacia Biotech, code RPNQ 0150) were added (˜1 mg per well) to terminate the assay. Plates were sealed and shaken and allowed to stand at ambient temperature for 35 minutes to 1 hour (preferably 35 minutes) to allow the beads to settle. Bound radioactive product was measured using a WALLAC TRILUX 1450 Microbeta scintillation counter. For inhibition curves, 10 concentrations ([…]) of each compound were assayed. Curves were analysed using ActivityBase and XLfit (ID Businesss Solutions Limited, 2 Ocean Court, Surrey Research Park, Guildford, Surrey GU2 7QB, United Kindgom) Results were expressed as pIC50 values.
The ability of compounds to inhibit catalytic activity at PDE4B (human recombinant) or PDE4D (human recombinant) was determined by IMAP Fluorescence Polarisation (FP) assay (IAP Explorer kit, available from Molecular Devices Corporation, Sunnydale, Calif., USA; Molecular Devices code: R8062) in 384-well format. The IMAP FP assay is able to measure PDE activity in an homogenous, non-radioactive assay format. The FP assay uses the ability of immobilised trivalent metal cations, coated onto nanoparticles (tiny beads), to bind the phosphate group of Fl-AMP that is produced on the hydrolysis of fluorescein-labelled (Fl) cyclic adenosine mono-phosphate (Fl-cAMP) to the non-cyclic Fl-AMP form. […] Binding of Fl-AMP product to the beads (coated with the immobilised trivalent cations) slows the rotation of the bound Fl-AMP and leads to an increase in the fluorescence polarisation ratio of parallel to perpendicular light. Inhibition of the PDE reduces/inhibits this signal increase. […]

[2] = test system: LPS-induced pulmonary neutrophilia in rats; assay: In Vivo Assay 1: LPS-induced pulmonary neutrophilia in rats, orally administered PDE4 inhibitors; conditions: po, rat, LPS aerosol 30 min after dosing, BAL 4 hours post LPS, read-out: neutrophilia-inhibition ED50
From the text: In Vivo Assay 1. LPS-induced Pulmonary Neutrophilia in Rats: Effect of Orally Administered PDE4 Inhibitors
The purpose of this neutrophilia model is to study the potentially anti-inflammatory effects in vivo of orally administered PDE4 inhibitors on neutrophilia induced by inhalation of aerosolized lipopolysaccharide (LPS), modelling the neutrophil inflammatory component(s) of COPD. See the literature section below for scientific background.
Male Lewis rats (Charles River, Raleigh, N.C., USA) weighing approximately 300-400 grams are pretreated with either (a) test compound suspended in 0.5% methylcellulose (obtainable from Sigma-Aldrich, St Louis, Mo., USA) in water or (b) vehicle only, delivered orally in a dose volume of 10 ml/kg. Generally, dose response curves are generated using the following doses of PDE4 inhibitors: 10.0, 2.0, 0.4, 0.08 and 0.016 mg/kg. Thirty minutes following pretreatment, the rats are exposed to aerosolized LPS (Serotype E. Coli 026:B6 prepared by trichloroacetic acid extraction, obtainable from Sigma-Aldrich, St Louis, Mo., USA), generated from a nebulizer containing a 100 μg/ml LPS solution. Rats are exposed to the LPS aerosol at a rate of 4 L/min for 20 minutes. LPS exposure is carried out in a closed chamber with internal dimensions of 45 cm length×24 cm width×20 cm height. The nebulizer and exposure chamber are contained in a certified fume hood. At 4 hours-post LPS exposure the rats are euthanized by overdose with pentobarbital at 90 mg/kg, administered intraperitoneally. Bronchoalveolar lavage (BAL) is performed through a 14 gauge blunt needle into the exposed trachea. Five, 5 ml washes are performed to collect a total of 25 ml of BAL fluid. Total cell counts and leukocyte differentials are performed on BAL fluid in order to calculate neutrophil influx into the lung. Percent neutrophil inhibition at each dose (cf. vehicle) is calculated and a variable slope, sigmoidal dose-response curve is generated, usually using Prism Graph-Pad. The dose-response curve is used to calculate an ED50 value (in mg per kg of body weight) for inhibition by the PDE4 inhibitor of the LPS-induced neutrophilia
Alternative method and results: In an alternative embodiment of the procedure, a single oral dose of 10 mg/kg or 1 mg/kg of the PDE4 inhibitor (or vehicle) is administered to the rats, and percent neutrophil inhibition is calculated and reported for that specific dose.

Row | SMILES | IC50 [1] [nM] | ED50 [2] [mg/kg]
1 | CCn1ncc2c(NC3CCOCC3)c(-c3nnc(CN4CCN(C)CC4)o3)cnc21 [Example 35, 1-Ethyl-5-{5-[(4-methylpiperazin-1-yl)methyl]-1,3,4-oxadiazol-2-yl}-N-(tetrahydro-2H-pyran-4-yl)-1H-pyrazolo[3,4-b]pyridin-4-amine] | 31.6 | 0.03 to 1
2 | CCn1ncc2c(NC3CCOCC3)c(-c3nnc(C4CCOCC4)o3)cnc21 [Example 38, 1-Ethyl-N-(tetrahydro-2H-pyran-4-yl)-5-[5-(tetrahydro-2H-pyran-4-yl)-1,3,4-oxadiazol-2-yl]-1H-pyrazolo[3,4-b]pyridin-4-amine] | 0.794 to 31.6 | 0.03 to 1

Now from value to molecule, other results behind:

Row | IC50 [1] [nM] | SMILES | ED50 [2] [mg/kg]
3 | 7.94 | CCn1ncc2c(NC3CCOCC3)c(-c3nnc(CS(C)(=O)=O)o3)cnc21 [Example 23, 1-Ethyl-5-{5-[(methylsulfonyl)methyl]-1,3,4-oxadiazol-2-yl}-N-(tetrahydro-2H-pyran-4-yl)-1H-pyrazolo[3,4-b]pyridin-4-amine] | 0.03 to 1
4 | 0.794 to 31.6 | CCn1ncc2c(NC3CCOCC3)c(-c3nnc(C(C)(C)C)o3)cnc21 [Example 17, 5-(S-Tert-butyl-1,3,4-oxadiazol-2-yl)-1-ethyl-N-(tetrahydro-2H-pyran-4-yl)-1H-pyrazolo[3,4-b]pyridin-4-amine] | 0.03 to 1
5 | 25.1 | CCn1ncc2c(NC3CCOCC3)c(-c3nnc(C)o3)cnc21 [Example 14, 1-Ethyl-5-(5-methyl-1,3,4-oxadiazol-2-yl)-N-(tetrahydro-2H-pyran-4-yl)-1H-pyrazolo[3,4-b]pyridin-4-amine] | 0.03 to 1
